Bridge positions count the residues as written; N and C are the ends. Square brackets hold non-standard residues; d marks the D form. Ends that are not written are not given here. azido‑Phe = azido-phenylalanine, photoactivatable residue; Abu(3-Me-diazirin-3-yl) = CC1(CC[C@H](N)C(=O)O)N=N1; Bpa = N[C@@H](Cc1ccc(C(=O)c2ccccc2)cc1)C(=O)O

This assay concerns the target Meditope enabled Trastuzumab. The assay can be described thus: BLI binding kinetics of meditope peptides to Meditope enabled Trastuzumab. The method, then:
The binding kinetics of photo enabled meditopes to antibodies (e.g., meditope enabled Trastuzumab, T-mab, and P-mab) was tested.
Background: Biolayer interferometry detects binding as a change in optical thickness at a sensor tip.

Meditope enabled Trastuzumab, sequence (as listed by the source): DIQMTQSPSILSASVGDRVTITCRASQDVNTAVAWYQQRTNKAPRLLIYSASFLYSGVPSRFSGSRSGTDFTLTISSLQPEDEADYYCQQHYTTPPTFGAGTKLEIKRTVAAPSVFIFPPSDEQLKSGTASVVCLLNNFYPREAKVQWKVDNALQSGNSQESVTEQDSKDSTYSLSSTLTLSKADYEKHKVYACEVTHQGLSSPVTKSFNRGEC
Meditope enabled Trastuzumab, sequence (as listed by the source): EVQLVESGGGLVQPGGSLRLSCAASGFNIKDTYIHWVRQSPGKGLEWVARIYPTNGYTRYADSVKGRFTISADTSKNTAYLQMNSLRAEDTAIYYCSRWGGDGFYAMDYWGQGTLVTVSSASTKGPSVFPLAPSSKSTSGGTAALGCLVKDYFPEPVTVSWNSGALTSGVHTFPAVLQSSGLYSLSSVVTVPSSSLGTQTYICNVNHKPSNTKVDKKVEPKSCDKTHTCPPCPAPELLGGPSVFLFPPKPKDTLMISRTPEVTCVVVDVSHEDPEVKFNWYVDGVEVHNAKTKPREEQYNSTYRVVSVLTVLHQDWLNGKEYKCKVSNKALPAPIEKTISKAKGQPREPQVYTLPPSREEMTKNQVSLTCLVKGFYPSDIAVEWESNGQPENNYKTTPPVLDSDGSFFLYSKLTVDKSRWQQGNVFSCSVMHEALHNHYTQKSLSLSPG

One may read the Kd as the concentration at which binding is half-saturated. Usually kon stands for a measure of how fast the partners come together. On to “Peptide 6: MMAD conjugated photoactivatable long cQFD photo-Met 9 (CQFDLSTR[Abu(3-Me-diazirin-3-yl)]LRCGGGK; disulfide 1-12 (inferred); also: MMAD conjugated)”, for which the Kd was less than 0.001 nM (Conc. 50 nM), 2.51 nM (Conc. 100 nM) and 0.0191 nM (Conc. 200 nM). The on-rate (kon) (Conc. 100 nM) was 3.65e+06 M⁻¹ s⁻¹.

“Peptide 10: MMAD conjugated photoactivatable long cQFD azido-Phe 3 (CQ[azido‑Phe]DLSTRRLRCGGGK; disulfide 1-12 (inferred); also: MMAD conjugated)”: the dissociation constant (Kd) runs as follows: (Conc. 50 nM) less than 0.001 nM; (Conc. 100 nM) 18100 nM; (Conc. 200 nM) 30200 nM. In addition, the “kon” value reads like this: (Conc. 50 nM) 816 M⁻¹ s⁻¹; (Conc. 100 nM) 266 M⁻¹ s⁻¹; (Conc. 200 nM) 537 M⁻¹ s⁻¹.

On to “Peptide 12: MMAD conjugated photoactivatable long cQFD benzoyl-Phe 3 (CQ[Bpa]DLSTRRLRCGGGK; disulfide 1-12 (inferred); also: MMAD conjugated)”, for which the Kd is, setting by setting: (Conc. 50 nM) less than 0.001 nM; (Conc. 100 nM) 1.22 nM; (Conc. 200 nM) 73.3 nM. The “kon” value worked out at 9.47e+06 M⁻¹ s⁻¹ (Conc. 100 nM) and 286000 M⁻¹ s⁻¹ (Conc. 200 nM).

These data come from patent publication US20190111149A1, “ANTI-EGFR ANTIBODY DRUG CONJUGATE” (priority 2016, published 2019).
